From PMC8219945 (Bioorganic Chemistry, 2021)
Read-outs that look alike come from different tables or passages of the source.

Test system: SARS-CoV-2
Assay: Antiviral IC50 determination
Type: cell-based, SARS-CoV-2 (hCoV-19/Egypt/NRC-03/2020)

SMILES	SI (selectivity index/therapeutical index): CC50/IC50 (CC50 VERO-E6 / IC50 SARS-CoV-2)	SI (selectivity index/therapeutical index): CC50/IC50
COc1ccc(-n2cc(COc3cc(C(F)(F)F)nc4ccccc34)nn2)cc1 [Compound 10c, 4-((1-(4-Methoxyphenyl)-1H-1,2,3-triazol-4-yl)methoxy)-2-(trifluoromethyl)quinoline]	0.03	–
COc1ccccc1-n1cc(Cn2c(C(F)(F)F)cc(=O)c3cc(C)ccc32)nn1 [Compound 11c, 1-((1-(2-Methoxyphenyl)-1H-1,2,3-triazol-4-yl)methyl)-6-methyl-2-(trifluoromethyl)quinolin-4(1H)-one]	3.15	–
CCN(CCO)CCCC(C)Nc1ccnc2cc(Cl)ccc12 (centres unmarked) [HCQ, hydroxychloroquine, reference compound]	–	10.85
FC(F)(F)c1cc(OCc2cn(-c3ccccc3Cl)nn2)c2ccccc2n1 [Compound 10d, 4-((1-(2-Chlorophenyl)-1H-1,2,3-triazol-4-yl)methoxy)-2-(trifluoromethyl)quinoline]	2.85	–
Fc1ccc(-n2cc(COc3cc(C(F)(F)F)nc4ccccc34)nn2)cc1 [Compound 10a, 4-((1-(4-Fluorophenyl)-1H-1,2,3-triazol-4-yl)methoxy)-2-(trifluoromethyl)quinoline]	5.04	–
COc1ccc2nc(C(F)(F)F)cc(OCc3cn(-c4ccc(F)cc4)nn3)c2c1 [Compound 10k, 4-((1-(4-Fluorophenyl)-1H-1,2,3-triazol-4-yl)methoxy)-6-methoxy-2-(trifluoromethyl)quinoline]	1.34	–
COc1ccccc1-n1cc(COc2cc(C(F)(F)F)nc3ccc(F)cc23)nn1 [Compound 10h, 6-Fluoro-4-((1-(2-methoxyphenyl)-1H-1,2,3-triazol-4-yl)methoxy)-2-(trifluoromethyl)quinoline]	0.76	–
COc1ccccc1-n1cc(COc2cc(C(F)(F)F)nc3ccccc23)nn1 [Compound 10e, 4-((1-(2-Methoxyphenyl)-1H-1,2,3-triazol-4-yl)methoxy)-2-(trifluoromethyl)quinoline]	0.03	–
COc1ccc(-n2cc(Cn3c(C(F)(F)F)cc(=O)c4ccccc43)nn2)cc1 [Compound 11a, 1-((1-(4-Methoxyphenyl)-1H-1,2,3-triazol-4-yl)methyl)-2-(trifluoromethyl)quinolin-4(1H)-one]	3.69	–
COc1ccc2nc(C(F)(F)F)cc(OCc3cn(-c4ccc(C)cc4)nn3)c2c1 [Compound 10l, 6-Methoxy-4-((1-(p-tolyl)-1H-1,2,3-triazol-4-yl)methoxy)-2-(trifluoromethyl)quinoline]	0.65	–
Cc1ccc(-n2cc(COc3cc(C(F)(F)F)nc4ccc(F)cc34)nn2)cc1 [Compound 10f, 6-Fluoro-4-((1-(p-tolyl)-1H-1,2,3-triazol-4-yl)methoxy)-2-(trifluoromethyl)quinoline]	1.71	–
Cc1ccc(-n2cc(COc3cc(C(F)(F)F)nc4ccccc34)nn2)cc1 [Compound 10b, 4-((1-(p-Tolyl)-1H-1,2,3-triazol-4-yl)methoxy)-2-(trifluoromethyl)quinoline]	0.49	–
Fc1ccc2nc(C(F)(F)F)cc(OCc3cn(-c4ccccc4Cl)nn3)c2c1 [Compound 10g, 4-((1-(2-Chlorophenyl)-1H-1,2,3-triazol-4-yl)methoxy)-6-fluoro-2-(trifluoromethyl)quinoline]	26.42	–
Cc1ccc2nc(C(F)(F)F)cc(OCc3cn(-c4ccccc4Cl)nn3)c2c1 [Compound 10i, 4-((1-(2-Chlorophenyl)-1H-1,2,3-triazol-4-yl)methoxy)-6-methyl-2-(trifluoromethyl)quinoline]	4.51	–
